Test results as given in ChEMBL document CHEMBL1201862, “PubChem BioAssay data set” (2004).
Several values for one entry are separate records, joined by “and”; a condition that tells them apart may be missing. Equal entries are not always repeated. Activity calls are given as the source filed them.

Assays:
[1] = biological target: T1, Polyadenylate-binding protein 1 (Homo sapiens, UniProt P11940); assay: MLLE binding blockers, Cy5 peptide tracer – biochemical, fluorescence polarization, Cy5-PAM2 peptide, secondary, miRNA deadenylation inhibitor project, dose response (AID 602260); type: functional; conditions: read-out: IC50_Mean
T1 sequence (P11940 whole entry, the tested form may be a part): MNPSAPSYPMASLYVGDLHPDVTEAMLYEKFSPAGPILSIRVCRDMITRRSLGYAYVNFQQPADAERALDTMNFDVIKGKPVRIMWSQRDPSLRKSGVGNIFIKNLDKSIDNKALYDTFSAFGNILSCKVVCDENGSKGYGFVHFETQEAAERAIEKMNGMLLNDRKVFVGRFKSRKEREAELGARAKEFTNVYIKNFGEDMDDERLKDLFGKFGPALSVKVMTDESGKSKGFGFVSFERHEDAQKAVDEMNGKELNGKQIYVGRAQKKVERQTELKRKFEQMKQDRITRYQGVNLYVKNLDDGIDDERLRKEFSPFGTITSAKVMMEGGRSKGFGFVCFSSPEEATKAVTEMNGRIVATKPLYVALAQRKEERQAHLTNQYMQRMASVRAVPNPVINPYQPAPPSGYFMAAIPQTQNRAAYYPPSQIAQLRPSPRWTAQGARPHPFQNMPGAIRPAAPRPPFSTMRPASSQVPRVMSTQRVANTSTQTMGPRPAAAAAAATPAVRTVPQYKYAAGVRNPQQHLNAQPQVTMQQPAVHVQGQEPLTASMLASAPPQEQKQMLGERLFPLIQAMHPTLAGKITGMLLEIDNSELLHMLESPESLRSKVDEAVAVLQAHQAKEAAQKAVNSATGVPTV

[2] = biological target: T1, Polyadenylate-binding protein 1; assay: MLLE domain peptide-binding blockers, IC50 – biochemical, fluorescence polarization, FITC-PAM2 peptide, dose response (AID 602259); type: functional; conditions: read-out: IC50_Mean
Vero [3] = assay: viability of Vero cells under compound – cytotoxicity control for flavivirus capping enzyme inhibitors (AID 588742); type: functional; conditions: Chlorocebus sabaeus
[4] = biological target: Dual specificity tyrosine-phosphorylation-regulated kinase 1A (Rattus norvegicus, UniProt Q63470); type: biochemical, Homo sapiens
Vero [5] = assay: cells; type: functional, cell-based; conditions: Chlorocebus sabaeus
Cytochrome P450 2D6 = Cytochrome P450 2D6 (Homo sapiens, UniProt P10635);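 note: CYP2D6 member of a cytochrome P450 panel assay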
Cytochrome P450 2C19 = Cytochrome P450 2C19 (Homo sapiens, UniProt P33261); assay: Cytochrome panel assay with activity outcomes. Panel member name: p450-cyp2c19 Compounds with AC50 equal or less than 10 uM are considered active; type: functional; conditions: read-out: AC50
Cytochrome P450 1A2 = biological target: T2, Cytochrome P450 1A2 (Homo sapiens, UniProt P05177);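 note: PubChem cytochrome P450 panel assay, CYP1A2 panel member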
T2 sequence (P05177 whole entry): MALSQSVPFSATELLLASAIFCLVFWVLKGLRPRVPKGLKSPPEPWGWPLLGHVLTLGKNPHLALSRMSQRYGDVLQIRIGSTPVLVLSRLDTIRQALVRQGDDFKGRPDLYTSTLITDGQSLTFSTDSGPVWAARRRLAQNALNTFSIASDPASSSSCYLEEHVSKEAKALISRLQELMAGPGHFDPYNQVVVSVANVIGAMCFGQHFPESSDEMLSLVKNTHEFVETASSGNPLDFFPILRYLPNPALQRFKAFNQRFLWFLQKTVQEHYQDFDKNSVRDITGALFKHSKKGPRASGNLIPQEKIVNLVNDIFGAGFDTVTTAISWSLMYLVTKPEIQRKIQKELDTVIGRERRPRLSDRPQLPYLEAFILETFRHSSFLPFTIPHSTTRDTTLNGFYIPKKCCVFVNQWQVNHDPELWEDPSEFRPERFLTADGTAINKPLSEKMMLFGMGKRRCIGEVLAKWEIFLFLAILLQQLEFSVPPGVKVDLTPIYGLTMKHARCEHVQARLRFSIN

Vero [6] = assay: cells; type: functional; conditions: Chlorocebus sabaeus
Aurora kinase B = Aurora kinase B (Homo sapiens, UniProt Q96GD4); type: functional
Sequence of Aurora kinase B (Q96GD4 whole entry): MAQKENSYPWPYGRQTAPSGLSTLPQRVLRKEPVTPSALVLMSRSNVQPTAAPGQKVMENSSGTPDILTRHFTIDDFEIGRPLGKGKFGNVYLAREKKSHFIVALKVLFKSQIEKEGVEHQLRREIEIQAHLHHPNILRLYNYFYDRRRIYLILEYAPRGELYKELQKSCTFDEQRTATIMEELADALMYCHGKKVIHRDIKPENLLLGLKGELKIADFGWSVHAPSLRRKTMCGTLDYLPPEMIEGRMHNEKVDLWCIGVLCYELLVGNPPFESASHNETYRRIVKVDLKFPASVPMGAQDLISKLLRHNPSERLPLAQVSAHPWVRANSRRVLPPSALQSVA

[7] = biological target: Vascular endothelial growth factor receptor 2 (Homo sapiens, UniProt P35968); type: functional
Sequence of Vascular endothelial growth factor receptor 2 (P35968 whole entry): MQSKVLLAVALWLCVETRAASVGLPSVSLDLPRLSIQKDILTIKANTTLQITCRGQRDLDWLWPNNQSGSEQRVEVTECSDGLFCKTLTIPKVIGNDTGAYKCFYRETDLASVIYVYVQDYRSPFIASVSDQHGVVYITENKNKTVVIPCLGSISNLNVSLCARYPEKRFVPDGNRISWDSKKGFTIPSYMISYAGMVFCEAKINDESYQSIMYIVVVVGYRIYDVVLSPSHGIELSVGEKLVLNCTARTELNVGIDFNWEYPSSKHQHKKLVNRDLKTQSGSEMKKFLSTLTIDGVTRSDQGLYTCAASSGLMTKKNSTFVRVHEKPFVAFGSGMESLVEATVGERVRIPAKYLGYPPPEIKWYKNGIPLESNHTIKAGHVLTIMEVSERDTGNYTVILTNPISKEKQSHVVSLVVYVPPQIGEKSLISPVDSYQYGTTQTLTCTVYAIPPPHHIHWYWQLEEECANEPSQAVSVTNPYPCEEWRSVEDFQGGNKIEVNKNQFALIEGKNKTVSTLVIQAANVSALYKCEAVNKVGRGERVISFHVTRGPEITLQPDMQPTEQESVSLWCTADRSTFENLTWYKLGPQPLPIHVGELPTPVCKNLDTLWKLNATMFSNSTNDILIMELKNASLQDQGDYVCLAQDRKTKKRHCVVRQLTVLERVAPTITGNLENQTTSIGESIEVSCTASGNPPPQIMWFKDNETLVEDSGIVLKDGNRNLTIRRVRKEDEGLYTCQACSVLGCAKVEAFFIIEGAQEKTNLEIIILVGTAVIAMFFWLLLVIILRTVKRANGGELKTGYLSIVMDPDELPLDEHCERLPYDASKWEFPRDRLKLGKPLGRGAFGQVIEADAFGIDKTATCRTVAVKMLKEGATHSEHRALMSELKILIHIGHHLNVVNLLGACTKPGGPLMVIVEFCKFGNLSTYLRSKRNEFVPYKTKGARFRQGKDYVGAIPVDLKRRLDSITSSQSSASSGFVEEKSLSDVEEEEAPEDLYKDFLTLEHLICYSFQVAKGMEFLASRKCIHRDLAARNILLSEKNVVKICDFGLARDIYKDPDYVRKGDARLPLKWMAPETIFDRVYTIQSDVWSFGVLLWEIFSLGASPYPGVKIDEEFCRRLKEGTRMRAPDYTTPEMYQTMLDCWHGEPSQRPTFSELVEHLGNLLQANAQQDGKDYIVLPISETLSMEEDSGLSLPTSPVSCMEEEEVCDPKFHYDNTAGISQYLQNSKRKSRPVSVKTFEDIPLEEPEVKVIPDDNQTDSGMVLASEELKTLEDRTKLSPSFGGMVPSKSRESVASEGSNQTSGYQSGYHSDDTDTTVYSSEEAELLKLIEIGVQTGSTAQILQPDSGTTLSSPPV

Aurora kinase A = biological target: T3, Aurora kinase A (Homo sapiens, UniProt O14965); type: functional;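 note: value from the Navigating the Kinome kinase panel profiling, panel entry STK6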
T3 sequence (O14965 whole entry): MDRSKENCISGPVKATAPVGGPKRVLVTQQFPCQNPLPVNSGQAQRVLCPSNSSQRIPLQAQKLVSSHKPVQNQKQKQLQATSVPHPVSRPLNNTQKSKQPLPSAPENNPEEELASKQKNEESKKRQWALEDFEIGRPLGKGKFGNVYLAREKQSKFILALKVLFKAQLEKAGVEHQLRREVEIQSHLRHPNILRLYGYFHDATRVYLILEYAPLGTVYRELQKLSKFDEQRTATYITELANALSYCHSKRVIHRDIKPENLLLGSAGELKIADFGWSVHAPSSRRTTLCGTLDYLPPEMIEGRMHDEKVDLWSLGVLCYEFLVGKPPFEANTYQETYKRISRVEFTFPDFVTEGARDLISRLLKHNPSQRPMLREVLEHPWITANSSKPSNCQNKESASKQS

[8] = biological target: Induced myeloid leukemia cell differentiation protein Mcl-1 (Homo sapiens, UniProt Q07820); type: functional
Fatty acid synthase [9] = biological target: T4, Fatty acid synthase (Homo sapiens, UniProt P49327); assay: inhibition of human FAS-TE enzyme activity – biochemical, endpoint fluorescence intensity, uHTS hits, dose response (AID 624327); type: functional;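 note: fluorescence from hydrolysis of an O-methyl fluorescein acyl ester substrate by the enzyme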
T4 sequence (P49327 whole entry): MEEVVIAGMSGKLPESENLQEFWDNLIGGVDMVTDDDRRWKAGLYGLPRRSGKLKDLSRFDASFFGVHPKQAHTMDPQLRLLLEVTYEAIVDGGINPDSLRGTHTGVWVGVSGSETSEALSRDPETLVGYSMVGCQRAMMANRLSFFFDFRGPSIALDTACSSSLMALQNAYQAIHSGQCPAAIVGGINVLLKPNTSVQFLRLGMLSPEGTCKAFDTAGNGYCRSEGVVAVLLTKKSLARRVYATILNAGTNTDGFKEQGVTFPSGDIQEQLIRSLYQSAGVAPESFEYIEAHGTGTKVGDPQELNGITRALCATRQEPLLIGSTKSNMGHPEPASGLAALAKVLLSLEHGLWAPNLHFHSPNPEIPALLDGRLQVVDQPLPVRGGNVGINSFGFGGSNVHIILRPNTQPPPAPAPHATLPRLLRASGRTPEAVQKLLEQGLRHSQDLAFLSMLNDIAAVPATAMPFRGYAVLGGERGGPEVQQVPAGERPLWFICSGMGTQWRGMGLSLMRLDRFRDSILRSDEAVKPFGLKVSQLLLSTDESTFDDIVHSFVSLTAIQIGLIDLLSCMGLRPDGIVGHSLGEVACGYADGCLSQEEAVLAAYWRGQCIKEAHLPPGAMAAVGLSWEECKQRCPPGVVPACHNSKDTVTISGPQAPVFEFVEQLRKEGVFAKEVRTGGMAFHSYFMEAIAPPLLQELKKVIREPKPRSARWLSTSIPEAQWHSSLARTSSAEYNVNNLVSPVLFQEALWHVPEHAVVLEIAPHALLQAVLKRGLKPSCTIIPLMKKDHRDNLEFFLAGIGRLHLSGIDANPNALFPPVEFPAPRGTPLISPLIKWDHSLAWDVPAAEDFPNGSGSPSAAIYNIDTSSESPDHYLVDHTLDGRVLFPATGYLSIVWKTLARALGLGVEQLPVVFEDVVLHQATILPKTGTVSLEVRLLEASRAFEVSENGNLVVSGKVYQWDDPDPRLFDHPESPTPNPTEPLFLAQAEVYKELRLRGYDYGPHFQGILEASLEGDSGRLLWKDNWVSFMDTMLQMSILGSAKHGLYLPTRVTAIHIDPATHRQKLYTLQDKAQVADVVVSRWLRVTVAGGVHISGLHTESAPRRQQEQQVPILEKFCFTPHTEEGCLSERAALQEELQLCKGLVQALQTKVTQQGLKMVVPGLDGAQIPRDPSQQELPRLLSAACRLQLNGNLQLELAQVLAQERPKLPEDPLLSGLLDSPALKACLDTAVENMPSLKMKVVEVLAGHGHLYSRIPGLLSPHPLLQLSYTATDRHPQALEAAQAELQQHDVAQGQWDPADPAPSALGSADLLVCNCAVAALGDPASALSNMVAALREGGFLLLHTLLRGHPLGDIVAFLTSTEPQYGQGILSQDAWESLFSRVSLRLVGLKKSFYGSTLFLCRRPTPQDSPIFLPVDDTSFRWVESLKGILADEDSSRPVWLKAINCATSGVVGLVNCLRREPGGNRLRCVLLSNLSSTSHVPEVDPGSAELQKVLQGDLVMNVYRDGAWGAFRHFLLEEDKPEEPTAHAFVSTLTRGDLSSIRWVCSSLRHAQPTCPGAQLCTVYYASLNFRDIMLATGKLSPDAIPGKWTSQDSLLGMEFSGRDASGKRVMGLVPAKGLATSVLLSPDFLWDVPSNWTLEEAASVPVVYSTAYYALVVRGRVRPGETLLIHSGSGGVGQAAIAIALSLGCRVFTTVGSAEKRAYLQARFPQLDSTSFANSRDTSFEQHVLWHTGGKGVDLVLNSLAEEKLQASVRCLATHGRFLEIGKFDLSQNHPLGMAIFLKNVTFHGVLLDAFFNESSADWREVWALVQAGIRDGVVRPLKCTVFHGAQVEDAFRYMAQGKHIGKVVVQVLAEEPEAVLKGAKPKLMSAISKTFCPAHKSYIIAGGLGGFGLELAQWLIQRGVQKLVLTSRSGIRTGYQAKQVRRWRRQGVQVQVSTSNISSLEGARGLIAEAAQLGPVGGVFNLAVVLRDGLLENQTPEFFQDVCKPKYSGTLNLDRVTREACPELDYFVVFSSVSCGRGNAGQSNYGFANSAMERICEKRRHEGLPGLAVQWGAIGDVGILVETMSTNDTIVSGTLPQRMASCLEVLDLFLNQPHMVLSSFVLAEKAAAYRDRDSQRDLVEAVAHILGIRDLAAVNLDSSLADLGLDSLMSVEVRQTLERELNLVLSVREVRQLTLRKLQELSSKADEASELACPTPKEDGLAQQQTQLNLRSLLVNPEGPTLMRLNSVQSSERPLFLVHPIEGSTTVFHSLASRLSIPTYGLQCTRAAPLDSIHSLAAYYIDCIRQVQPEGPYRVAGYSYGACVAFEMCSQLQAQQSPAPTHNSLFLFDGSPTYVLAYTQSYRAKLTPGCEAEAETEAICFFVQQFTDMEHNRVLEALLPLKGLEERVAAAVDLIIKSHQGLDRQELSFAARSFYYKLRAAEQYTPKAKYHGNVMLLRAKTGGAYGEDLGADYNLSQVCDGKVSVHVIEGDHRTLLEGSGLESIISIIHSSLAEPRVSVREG

[10] = biological target: FAD-linked sulfhydryl oxidase ALR (Homo sapiens, UniProt P55789); assay: ALR-catalysed DTT oxidation blockers – biochemical, H2O2 detection, luminescence, cherry-pick, dose response (AID 493248)
Sequence of FAD-linked sulfhydryl oxidase ALR (P55789 whole entry): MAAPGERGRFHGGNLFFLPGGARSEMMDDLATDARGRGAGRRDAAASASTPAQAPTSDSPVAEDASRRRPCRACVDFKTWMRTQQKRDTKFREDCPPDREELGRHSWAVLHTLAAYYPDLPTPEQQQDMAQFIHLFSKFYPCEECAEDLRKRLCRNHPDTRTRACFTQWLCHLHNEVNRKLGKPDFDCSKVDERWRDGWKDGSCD

HeLa = assay: ATP-based viability loss in HeLa cells – cell-based, CellTiter-Glo luminescence, cherry-pick samples, cytotoxicity control for MITF activator project, dose response (AID 540259); type: functional; conditions: Homo sapiens
Fatty acid synthase [11] = biological target: T4, Fatty acid synthase; assay: inhibition of human FAS-TE enzyme activity – biochemical, kinetic fluorescence intensity, dose response (AID 624326); type: functional;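 note: rate of fluorescence rise from hydrolysis of a fluorogenic O-methyl fluorescein ester substrate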
[12] = test system: Streptococcus sp. 'group A'; assay: Streptococcus pyogenes SK(-)GAS viability under kanamycin – luminescence, BacTiterGlo, confirmation, counter-screen for streptokinase expression inhibitor project, dose response (AID 1900); type: functional, organism-based
Streptococcus = assay: GAS UMAA2166 growth inhibition – luminescence, BacTiterGlo, counter-screen for streptokinase expression inhibitor project, dose response (AID 1915); type: functional, organism-based;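 note: potency for reduction of bacterial viability or growth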
Streptokinase A = biological target: T5, Streptokinase A (Streptococcus pyogenes serotype M1, UniProt P10520); assay: viability-normalized secreted streptokinase activity reduction – plasminogen activation absorbance, OD405, dose response (AID 1914); type: functional, Streptococcus pyogenes M1 GAS;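 note: secreted streptokinase activity via plasminogen activation per viability signal from cell pellet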
T5 sequence (P10520 whole entry): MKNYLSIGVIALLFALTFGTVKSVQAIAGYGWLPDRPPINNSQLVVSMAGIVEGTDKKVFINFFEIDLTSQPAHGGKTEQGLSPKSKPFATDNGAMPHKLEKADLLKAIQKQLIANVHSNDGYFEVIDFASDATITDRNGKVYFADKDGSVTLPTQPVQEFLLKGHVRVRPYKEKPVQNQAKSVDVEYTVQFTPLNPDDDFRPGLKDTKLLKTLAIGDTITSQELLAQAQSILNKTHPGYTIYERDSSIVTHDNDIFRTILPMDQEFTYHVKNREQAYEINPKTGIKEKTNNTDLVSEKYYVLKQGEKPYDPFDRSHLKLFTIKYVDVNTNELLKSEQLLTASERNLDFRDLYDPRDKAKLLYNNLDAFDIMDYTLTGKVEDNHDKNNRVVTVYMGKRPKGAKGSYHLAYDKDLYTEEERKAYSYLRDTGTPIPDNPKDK

For `Fc1ccccc1N=C(S)Nc1cccc2cnccc12`, the IC50 [1] was > 66 µM (inactive), the IC50 [2] was > 66 µM (inactive) and the CC50 (Vero [3]) was > 40 µM (active). For the same molecule, the AC50 [4] was 5.56 µM (active).
For `Cc1ccc(-c2nc(CCN3C(=O)c4ccccc4C3=O)cs2)cc1`, the IC50 (cells) was 47.1 µM (active) and the IC50 (Vero [5]) was > 25 µM (active).
In the case of `COCCCNC(=O)C1CCC(=O)N1Cc1ccccc1Cl` (stereo not drawn), the AC50 (Cytochrome P450 2D6) is reported as 25.1 µM (inconclusive), the AC50 (Cytochrome P450 2C19) is reported as 22.4 µM (inconclusive) and the AC50 (Cytochrome P450 1A2) is reported as “inconclusive”.
With `COC(=O)[C@@]1(Cc2ccc(F)cc2)[C@H]2c3cc(C(=O)N(C)C)n(Cc4cc(F)c(F)c(F)c4)c3C[C@H]2CN1C(=O)c1ccccc1` the AC50 (Cytochrome P450 1A2) was “inconclusive”.
In the case of `CN(C)CC1CCC/C(=C\c2ccc(OC(=O)/C=C/c3ccc(Cl)c(Cl)c3)cc2)C1=O` (stereo not drawn), the CC50 (Vero [6]) is reported as 11.5 µM (active) and the IC50 (Vero [5]) is reported as > 25 µM (active).
In the case of `COc1cccc(S(=O)(=O)Nc2ccc3c(c2)C(=NO)c2ccccc2-3)c1`, the Ki (Aurora kinase B) is reported as 6.31 nM (active) and 15.8 nM (active), the Ki [7] is reported as 3.98 µM (active) and 794 nM (active) and the Ki (Aurora kinase A) is reported as > 2 µM (inactive) and 2 µM (active).
In the case of `C/C(=N\Nc1ccc(C(=O)O)cc1)c1ccc2c(c1)Nc1ccccc1S2`, the IC50 [8] is reported as 36 µM (active), the IC50 (Fatty acid synthase [9]) is reported as 11.7 µM (active) and the AC50 [10] is reported as 0.013 µM (active). For the same molecule, the AC50 (HeLa) was 48.5 µM (active), the IC50 (Fatty acid synthase [11]) was 6.48 µM (active) and the EC50 [12] was 3.9 µM (active). The EC50 (Streptococcus) was 7.08 µM (active) and the EC50 (Streptokinase A) was > 150 µM (not active).
